From article PMC9095706, “TMEM16 scramblases thin the membrane to enable lipid scrambling” (Nature Communications, 2022)

Columns and labels:
afTMEM16 = target: T1, afTMEM16 (Aspergillus fumigatus, UniProt Q4WA18); assay: cryo-EM structure ([…] Å) in MSP1E3 nanodiscs; type: binding; details: 0.5 mM Ca2+; 7:3 DOPC:DOPG nanodisc; lipids D4 and D5 built as PG, near dimer interface and lipid pathway; models started from POPG (PGW) and truncated to density
T1 construct: gene AFUA_4G02970; expressed in S. cerevisiae from pDDGFP2, His tag removed with TEV protease, digitonin-purified homodimer, in MSP1E3 nanodiscs or proteoliposomes
T1 sequence (Q4WA18 1-735): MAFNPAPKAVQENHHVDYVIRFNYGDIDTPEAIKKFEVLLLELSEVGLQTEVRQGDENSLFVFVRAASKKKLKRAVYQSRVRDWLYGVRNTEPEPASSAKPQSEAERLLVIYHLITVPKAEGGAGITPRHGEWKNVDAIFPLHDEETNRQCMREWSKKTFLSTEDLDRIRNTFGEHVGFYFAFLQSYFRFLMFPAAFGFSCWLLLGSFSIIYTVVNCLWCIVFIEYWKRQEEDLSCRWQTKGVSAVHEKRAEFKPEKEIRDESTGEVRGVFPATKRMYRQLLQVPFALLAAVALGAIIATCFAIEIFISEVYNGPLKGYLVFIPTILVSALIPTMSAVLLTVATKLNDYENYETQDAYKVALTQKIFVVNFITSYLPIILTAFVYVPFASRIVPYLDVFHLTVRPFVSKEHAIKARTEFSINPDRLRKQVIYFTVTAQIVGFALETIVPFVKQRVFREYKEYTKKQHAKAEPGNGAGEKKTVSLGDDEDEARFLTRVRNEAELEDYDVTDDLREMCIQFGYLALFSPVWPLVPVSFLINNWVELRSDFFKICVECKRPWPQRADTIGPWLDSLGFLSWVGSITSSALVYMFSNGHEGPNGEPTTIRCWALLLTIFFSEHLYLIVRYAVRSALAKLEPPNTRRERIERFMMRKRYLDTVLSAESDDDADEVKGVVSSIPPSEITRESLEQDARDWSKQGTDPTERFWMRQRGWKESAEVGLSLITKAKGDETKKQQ

[1] = target: afTMEM16 scramblase from Aspergillus fumigatus (Aspergillus fumigatus); assay: cryo-EM structure; afTMEM16 reconstituted in lipid nanodiscs (MSP1E3 or MSP2N2; C14, C18 or C22 lipids, 7 PC:3 PG), 50 mM HEPES pH 8.0, 150 mM KCl with 0.5 mM CaCl2 or 5 mM EDTA; homodimer, C2 symmetric reconstructions

Row | stoichiometry N [1] | Molecule | cryo-EM structure (2.3 Å) in MSP1E3 nanodiscs (afTMEM16)
1 | – | CCCCCCCC/C=C\CCCCCCCC(=O)OC[C@H](COP(=O)(O)OCC(O)CO)OC(=O)CCCCCCC/C=C\CCCCCCCC (mixture of isomers) [1,2-dioleoyl-sn-glycero-3-phospho-(1′-rac-glycerol)] | The downward slope of the OL starts at D5, a well-defined PG lipid
2 | 2 | afTMEM16 scramblase from Aspergillus fumigatus (natural protein) | –
